Reference: US12036312B2, “Non-aqueous topical compositions comprising a halogenated salicylanilide” (priority 2016, dated 2024)
Like-named read-outs stand apart in the source and are kept apart here.

What was measured:
S. aureus = assay: MIC assay according to CLSI criteria, Example 2, S. aureus strains; format: cell-based, Staphylococcus aureus; settings: Staphylococcus aureus
Description: Chosen for its relevance regarding bacterial skin infections, the methicillin-resistant S. aureus (MRSA) 01 strain was used as the primary test microorganism. This strain is a community-acquired MRSA clinical isolate of USA 300 type, from a skin abscess.
Two-hundred-four other MRSA and methicillin-sensitive S. aureus strains, and 4 Streptococcus pyogenes strains, were also included in the study. These covered fusidic acid- and mupirocin-resistant strains, these two types of resistance being of clinical relevance.
Strains were conserved in Luria Bertani (LB) Broth (S. aureus) or Brain Heart Infusion (BHI) (S. pyogenes) supplemented with glycerol 15% (v/v) at −80° C., and reactivated by isolation on LB (S. aureus) or BHI (S. pyogenes) agar plates. Strains were cultivated in Mueller Hinton (MH) Broth-cation adjusted (S. aureus) or BHI (S. pyogenes). All strains were cultivated aerobically (microaerobically for S. pyogenes strains) at 37° C.
Bacterial cultures were stopped in their exponential growth phase and plates were inoculated with the approximate concentration of 5×10^5 cells per well. Plates were incubated at 37° C. for 18 hours (S. aureus) or 24 hours (S. pyogenes). Optical density at a wavelength of 600 nm was measured at the end of the incubation time.

P. acnes = format: cell-based, Propionibacterium acnes; settings: for Frequency of mutation/ml: MIC × 4

C=C[C@]1(C)C[C@@H](OC(=O)CS[C@@H]2C[C@H]3CC[C@@H](C2)N3C)[C@]2(C)[C@H](C)CC[C@]3(CCC(=O)[C@H]32)[C@@H](C)[C@@H]1O [Retapamulin, retapamulin]
16 µg/mL: MIC (S. aureus; MRSA, strain MRSA 31)
< 0.01 µg/mL: MIC (S. aureus; MRSA, strain MRSA 56) | MIC (S. aureus; MRSA, strain MRSA 69) | MIC (S. aureus; MRSA, strain MRSA 71) | MIC (S. aureus; MRSA, strain MRSA 79)
~1×10^−8: frequency of mutation of resistance (P. acnes; P. acnes)
1.46e-08 mL⁻¹: Frequency of mutation/ml (P. acnes; P. acnes strain CSS3023)
2.17e-08 mL⁻¹: Frequency of mutation/ml (P. acnes; P. acnes strain 998)
1.25e-08 mL⁻¹: Frequency of mutation/ml (P. acnes; P. acnes strain CSS3288)
0.25 µg/mL: MIC (S. aureus; strain 115690C)
1.09e-08 mL⁻¹: Frequency of mutation/ml (P. acnes; P. acnes strain 1044)
0.02 µg/mL: MIC (S. aureus; MRSA, strain MRSA 27b) | MIC (S. aureus; MRSA, strain MRSA 41) | MIC (S. aureus; MRSA, strain MRSA 44) | MIC (S. aureus; MRSA, strain MRSA 45) | MIC (S. aureus; MRSA, strain MRSA 46) | MIC (S. aureus; MRSA, strain MRSA 47) | MIC (S. aureus; MRSA, strain MRSA 48) | MIC (S. aureus; MRSA, strain MRSA 49) | MIC (S. aureus; MRSA, strain MRSA 50) | MIC (S. aureus; MRSA, strain MRSA 52) | MIC (S. aureus; MRSA, strain MRSA 55) | MIC (S. aureus; MRSA, strain MRSA 57) | MIC (S. aureus; MRSA, strain MRSA 58) | MIC (S. aureus; MRSA, strain MRSA 59) | MIC (S. aureus; MRSA, strain MRSA 60) | MIC (S. aureus; MRSA, strain MRSA 61) | MIC (S. aureus; MRSA, strain MRSA 62) | MIC (S. aureus; MRSA, strain MRSA 63) | MIC (S. aureus; MRSA, strain MRSA 64) | MIC (S. aureus; MRSA, strain MRSA 65) | MIC (S. aureus; MRSA, strain MRSA 66) | MIC (S. aureus; MRSA, strain MRSA 67) | MIC (S. aureus; MRSA, strain MRSA 68) | MIC (S. aureus; MRSA, strain MRSA 70) | MIC (S. aureus; MRSA, strain MRSA 80) | MIC (S. aureus; MRSA, strain MRSA 87) | MIC (S. aureus; MRSA, strain MRSA 89) | MIC (S. aureus; MRSA, strain MRSA 93) | MIC (S. aureus; strain E5-1030482) | MIC (S. aureus; strain E5-1033091)
0.125 µg/mL: MIC (S. aureus; MRSA, strain MRSA 21)
0.06 µg/mL: MIC (S. aureus; MRSA, strain MRSA 01) | MIC (S. aureus; MRSA, strain MRSA 02) | MIC (S. aureus; MRSA, strain MRSA 04) | MIC (S. aureus; MRSA, strain MRSA 07) | MIC (S. aureus; MRSA, strain MRSA 09) | MIC (S. aureus; MRSA, strain MRSA 10) | MIC (S. aureus; MRSA, strain MRSA 11) | MIC (S. aureus; MRSA, strain MRSA 13) | MIC (S. aureus; MRSA, strain MRSA 15) | MIC (S. aureus; MRSA, strain MRSA 16) | MIC (S. aureus; MRSA, strain MRSA 18) | MIC (S. aureus; MRSA, strain MRSA 20) | MIC (S. aureus; MRSA, strain MRSA 22) | MIC (S. aureus; MRSA, strain MRSA 23) | MIC (S. aureus; MRSA, strain MRSA 24) | MIC (S. aureus; MRSA, strain MRSA 25) | MIC (S. aureus; MRSA, strain MRSA 26) | MIC (S. aureus; MRSA, strain MRSA 27) | MIC (S. aureus; MRSA, strain MRSA 29) | MIC (S. aureus; MRSA, strain MRSA 32) | MIC (S. aureus; MRSA, strain MRSA 33) | MIC (S. aureus; MRSA, strain MRSA 34) | MIC (S. aureus; MRSA, strain MRSA 36) | MIC (S. aureus; MRSA, strain MRSA 37) | MIC (S. aureus; MRSA, strain MRSA 38) | MIC (S. aureus; MRSA, strain MRSA 39) | MIC (S. aureus; MRSA, strain MRSA 42) | MIC (S. aureus; MRSA, strain MRSA 43) | MIC (S. aureus; MRSA, strain MRSA 90) | MIC (S. aureus; MRSA, strain MRSA 91) | MIC (S. aureus; MRSA, strain MRSA 92) | MIC (S. aureus; MRSA, strain MRSA 106) | MIC (S. aureus; MRSA, strain MRSA 107) | MIC (S. aureus; strain 9-2642158) | MIC (S. aureus; strain 9-2955245) | MIC (S. aureus; strain 000274T) | MIC (S. aureus; strain 114660U) | MIC (S. aureus; strain 115015T) | MIC (S. aureus; strain 115370U) | MIC (S. aureus; strain 115584D) | MIC (S. aureus; strain 115740E) | MIC (S. aureus; strain 115810E) | MIC (S. aureus; strain E5-1030440) | MIC (S. aureus; strain E5-1030472) | MIC (S. aureus; strain E5-1035775) | MIC (S. aureus; strain E5-1037958) | MIC (S. aureus; strain E5-1038286) | MIC (S. aureus; strain E5-1039684) | MIC (S. aureus; strain E5-1039697) | MIC (S. aureus; strain E5-1043668) | MIC (S. aureus; strain E5-1045179) | MIC (S. aureus; strain E5-1046020) | MIC (S. aureus; strain E5-1046039) | MIC (S. aureus; strain E5-1046074) | MIC (S. aureus; strain E5-1046085) | MIC (S. aureus; strain E5-1046096) | MIC (S. aureus; strain E5-1046297) | MIC (S. aureus; strain E5-1046723) | MIC (S. aureus; strain E5-1048428) | MIC (S. aureus; strain E5-1048654) | MIC (S. aureus; strain E5-1048670) | MIC (S. aureus; strain K000772) | MIC (S. aureus; strain R000019) | MIC (S. aureus; strain R000024) | MIC (S. aureus; strain U115579)
0.03 µg/mL: MIC (S. aureus; ATCC29213, strain ATCC 29213) | MIC (S. aureus; MRSA, strain MRSA 03) | MIC (S. aureus; MRSA, strain MRSA 05) | MIC (S. aureus; MRSA, strain MRSA 06) | MIC (S. aureus; MRSA, strain MRSA 08) | MIC (S. aureus; MRSA, strain MRSA 12) | MIC (S. aureus; MRSA, strain MRSA 14) | MIC (S. aureus; MRSA, strain MRSA 17) | MIC (S. aureus; MRSA, strain MRSA 19) | MIC (S. aureus; MRSA, strain MRSA 28) | MIC (S. aureus; MRSA, strain MRSA 30) | MIC (S. aureus; MRSA, strain MRSA 35) | MIC (S. aureus; MRSA, strain MRSA 40) | MIC (S. aureus; MRSA, strain MRSA 51) | MIC (S. aureus; MRSA, strain MRSA 53) | MIC (S. aureus; MRSA, strain MRSA 54) | MIC (S. aureus; MRSA, strain MRSA 72) | MIC (S. aureus; MRSA, strain MRSA 73) | MIC (S. aureus; MRSA, strain MRSA 74) | MIC (S. aureus; MRSA, strain MRSA 75) | MIC (S. aureus; MRSA, strain MRSA 76) | MIC (S. aureus; MRSA, strain MRSA 77) | MIC (S. aureus; MRSA, strain MRSA 78) | MIC (S. aureus; MRSA, strain MRSA 81) | MIC (S. aureus; MRSA, strain MRSA 82) | MIC (S. aureus; MRSA, strain MRSA 83) | MIC (S. aureus; MRSA, strain MRSA 84) | MIC (S. aureus; MRSA, strain MRSA 85) | MIC (S. aureus; MRSA, strain MRSA 86) | MIC (S. aureus; MRSA, strain MRSA 88) | MIC (S. aureus; MRSA, strain MRSA 94) | MIC (S. aureus; MRSA, strain MRSA 95) | MIC (S. aureus; MRSA, strain MRSA 96) | MIC (S. aureus; MRSA, strain MRSA 97) | MIC (S. aureus; MRSA, strain MRSA 98) | MIC (S. aureus; MRSA, strain MRSA 99) | MIC (S. aureus; MRSA, strain MRSA 101) | MIC (S. aureus; MRSA, strain MRSA 102) | MIC (S. aureus; MRSA, strain MRSA 103) | MIC (S. aureus; MRSA, strain MRSA 104) | MIC (S. aureus; MRSA, strain MRSA 105) | MIC (S. aureus; MRSA, strain MRSA 108) | MIC (S. aureus; MRSA, strain MRSA 109) | MIC (S. aureus; MRSA, strain MRSA 110) | MIC (S. aureus; MRSA, strain MRSA 111) | MIC (S. aureus; MRSA, strain MRSA 112) | MIC (S. aureus; MRSA, strain MRSA 113) | MIC (S. aureus; MSSA, strain MSSA 01) | MIC (S. aureus; MSSA, strain MSSA 02) | MIC (S. aureus; NEWMAN, strain Newman) | MIC (S. aureus; strain 9-1862936) | MIC (S. aureus; strain 9-2625962) | MIC (S. aureus; strain 9-26422166) | MIC (S. aureus; strain 000040C) | MIC (S. aureus; strain 000041C) | MIC (S. aureus; strain 115242C) | MIC (S. aureus; strain 115263C) | MIC (S. aureus; strain 115268C) | MIC (S. aureus; strain 115273C) | MIC (S. aureus; strain 115295C) | MIC (S. aureus; strain 115303C) | MIC (S. aureus; strain 115427C) | MIC (S. aureus; strain 115445C) | MIC (S. aureus; strain 115561C) | MIC (S. aureus; strain 115628T) | MIC (S. aureus; strain 115691T) | MIC (S. aureus; strain 115903T) | MIC (S. aureus; strain 116122T) | MIC (S. aureus; strain E5-1029252) | MIC (S. aureus; strain E5-1029558) | MIC (S. aureus; strain E5-1030469) | MIC (S. aureus; strain E5-1033076 (first listing, r204)) | MIC (S. aureus; strain E5-1033076 (second listing, r205)) | MIC (S. aureus; strain E5-1033088) | MIC (S. aureus; strain E5-1035277) | MIC (S. aureus; strain E5-1035284) | MIC (S. aureus; strain E5-1035779) | MIC (S. aureus; strain E5-1037971) | MIC (S. aureus; strain E5-1038279) | MIC (S. aureus; strain E5-1038294) | MIC (S. aureus; strain E5-1041977) | MIC (S. aureus; strain E5-1041979) | MIC (S. aureus; strain E5-1041980) | MIC (S. aureus; strain E5-1041987) | MIC (S. aureus; strain E5-1043184) | MIC (S. aureus; strain E5-1046019) | MIC (S. aureus; strain E5-1046070) | MIC (S. aureus; strain E5-1046296) | MIC (S. aureus; strain E5-1046298) | MIC (S. aureus; strain E5-1047585) | MIC (S. aureus; strain E5-1047606) | MIC (S. aureus; strain E5-1047924) | MIC (S. aureus; strain E5-1048204) | MIC (S. aureus; strain EEFIC 01) | MIC (S. aureus; strain EEFIC 02) | MIC (S. aureus; strain K000796) | MIC (S. aureus; strain K000863) | MIC (S. aureus; strain K000864) | MIC (S. aureus; strain K000866) | MIC (S. aureus; strain K115498) | MIC (S. aureus; strain K115688) | MIC (S. aureus; strain K115689) | MIC (S. aureus; strain R000020)
1 µg/mL: MIC (S. aureus; MRSA, strain MRSA 100)
